Laboratory results published in article PMC12147183, “Lacritin cleavage-potentiated targeting of iron - respiratory reciprocity promotes bacterial death” (The Journal of Biological Chemistry, 2025).
“Also recorded” adds a separate entry of the source. Peptide text beside a SMILES is read from it. * marks the point of attachment. FITC = O=C1OC2(c3ccc(O)cc3Oc3cc(O)ccc32)c2ccc(NC(=S)*)cc21; Ahx = NCCCCCC(=O)O

How the values were obtained:
P. aeruginosa PA14 [1] = format: cell-based, Pseudomonas aeruginosa
Protocol: Janelia Fluor 549-N-104 and -C-95 (each 25 μg) in 20 μl of M9 minimal salts were incubated with ∼3.75 × 10^9 cfu of pelleted PA14 cells for 1 h at 35 °C, washed four times with filtered 10 mM Na2HPO4, 1.8 mM KH2PO4, 2.7 mM KCl, 137 mM NaCl (pH 7.2), and then treated with 5 μM SYTOX Green to assess membrane integrity. Stained cells (1 μl) were immobilized on coverslip supported 1.5% agarose pads for imaging on a custom-built inverted fluorescence microscope, using 1 W/cm^2 of 561-nm laser light (Genesis MX561 MTM, Coherent) to excite Janelia Fluor 549 Maleimide and 4 mW/cm^2 of 488-nm laser light (Coherent) to excite SYTOX Green. Emitted light collected using an oil immersion objective (PLSAPO, 60×, 1.4 NA) was passed through a filter set (zt440/488/561rpc, Chroma Technology) to block excitation light with separation of Janelia Fluor 549 Maleimide and SYTOX Green emission using a diochroic beam splitter (T5g0lpxr-uf3, Chroma Technology) as collected on separate sCMOS cameras (ORCA-Flash 4.0 V2, Hamamatsu Photonics). Brightfield images were collected to obtain the total number of cells in each field of view.

P. aeruginosa PA14 [2] = experiment: PA14 viability (Alamar Blue, CFU) with exogenous polyamines; format: cell-based, Pseudomonas aeruginosa; conditions: Alamar Blue and CFU; for protection of PA14 against 5 μM N-104 killing: 5 to 50 μM exogenous polyamine, n = 3
[3] = for solubility in common solvents: water, DMSO, methanol, isopropanol, acetonitrile
Text: Guided by TMHMM v 2 and DeepTMHMM 1.0.24, we synthesized peptides corresponding to PotH’s predicted outer loops 2 ([…]) and outer loop 3 ([…]). Fifty-three amino acid PotH's OL1 was not synthesized with predicted poor solubility. We also synthesized peptides corresponding to FeoB's predicted outer loop 1 ([…]), outer loop 2 ([…]), outer loop 3 ([…]), and outer loop 5 (ATFAA). […] For these, all amino and carboxy termini were acetylated and amidated, respectively (Supporting Information Reagents Table). All synthesized peptides were aliquoted and stored lyophilized at −80 °C in a dry environment.

wild-type E. coli K-12 = experiment: Alamar Blue viability assay of wild-type E. coli K-12; format: cell-based, Escherichia coli; conditions: 100 μM, wild-type E. coli K-12 10^6 cfu/ml, 37 °C, hourly, n = 3
Fe^2+ uptake by PA14 = format: cell-based, Pseudomonas aeruginosa; conditions: 25 μM peptide, n = 3
Protocol: Iron depletion was induced in PA14 cells (5 × 10^9 cfu in 10 ml 10 mM Na2HPO4, 1.8 mM KH2PO4, 2.7 mM KCl, 137 mM NaCl (pH 7.2) by treatment with the chelator 1 mM 2,2′-bipyridyl at room temperature for 1 h. After washing twice with 0.9% NaCl, cells were suspended in 1 ml of 1 mM Na2HPO4, 0.18 mM KH2PO4, 0.27 mM KCl, 13.7 mM NaCl for treatment without or with 1, 10, 25, 50 or 100 μM of N-104 (or negative control N-80/C-25 or C-95) for 45 min at 35 °C, incubated at the same temperature for 15 min with 100 μM FeSO4 and 13 mM ascorbic acid, washed twice with 1 mM Na2HPO4, 0.18 mM KH2PO4, 0.27 mM KCl, and 13.7 mM NaCl, and pelleted at 12,000g. The ferrozine assay ([54]) was subsequently employed. Briefly, cells in pellets were lysed with 20 μl of 50 mM NaOH, partially neutralized with 20 μl of 10 mM HCl, subjected to iron release with 20 μl of acidified 0.29 M KMnO4 for 30 min at 80 °C, cooled to room temperature, incubated with 7 μl of 30 mM ferrozine, 1.1 μl of 180 mM neocuproine, 15 μl of 5 M ammonium acetate and 15 μl of 1 M ascorbic acid for 30 min at room temperature and then centrifuged at 21,000g for 10 min. Cellular iron uptake could then be assessed from the supernatant OD565. Single-molecule transport per cell was estimated using a standard curve.

[4] = system: ^14C-spermidine uptake by PA14; format: cell-based, Pseudomonas aeruginosa; conditions: 25 μM peptide, n = 6
Protocol: 100 μl aliquots (0.8 × 10^8 cfu) of PA14 cell cultures in 1 mM Na2HPO4, 0.18 mM KH2PO4, 0.27 mM KCl, 13.7 mM NaCl without or with 1, 10, 25, 50 or 100 μM N-104 (or N-80/C-25 or C-95) for 45 min at 35 °C were incubated with 1 μl of 10 mM [1,4-^14C]putrescine (0.1 mCi/ml; ARC-0245–250, American Radiolabeled Chemicals) or [1,4-^14C]spermidine (0.1 mCi/ml; ARC-3138–50, American Radiolabeled Chemicals) for 15 min at 35 °C. Cell pellets were washed four times with 100 μl of 10 mM Na2HPO4, 1.8 mM KH2PO4, 2.7 mM KCl, 137 mM NaCl (pH 7.2) and then transferred to 4 ml of scintillation fluid (1200.437, PerkinElmer OptiPhase HiSafe 3) for analysis in a Beckman Coulter LS6500. Also assessed was radioactivity from the last wash. Single-molecule transportation per cell was estimated using standard curves for each radiolabeled polyamine.

P. aeruginosa PA14 [5] = experiment: SYTOX Orange PA14 membrane disruption assay; conditions: 25 μM peptide, PA14 10^7 cfu/ml, 1 h at 35 °C, 5 μM SYTOX Orange; positive control 70% ethanol
P. aeruginosa PA14 [6] = conditions: 0-25 μM FITC-N-104 or 2-25 μM Janelia Fluor 549-tagged N-104, PA14 10^6 cfu/ml, 8 h
Protocol: After overnight incubation at 37 °C, plates were analyzed on a ChemiDoc XRS (Bio-Rad).

P. aeruginosa PA14 [7] = experiment: Imaging flow cytometry of peptide entry; format: cell-based, Pseudomonas aeruginosa; conditions: 100 or 10 μM, PA14 10^6 cfu/ml, 1 h at 35 °C, trypsin EDTA to remove surface peptide, no ethanol, n = 3
Protocol: 0.5 ml of 10^6 cfu/ml PA14 cells in 1 mM Na2HPO4, 0.18 mM KH2PO4, 0.27 mM KCl, and 13.7 mM NaCl (pH 7.2) were incubated for 1 h at 35 °C with 10 or 100 μM FITC-N-104 (without, or as a positive control with 70% ethanol) or with the negative control FITC-C-95. Cells were subsequently washed in the same buffer, pelleted, treated with 100 μl of 0.25% trypsin EDTA (Gibco, 25200-056) for 5 min at 35 °C to remove surface-attached peptide, further washed and pelleted, resuspended in 100 μl of the same buffer for fixation with an equal volume of 8% formaldehyde (18,814, Polysciences Inc) and then imaged using an Amnis Imagestream X Mark II imaging flow cytometer. 500 to 1000 counts were analyzed per replicate. To ensure the exclusion of debris and out-of-focus cells, Gradient-RMS (average slope spanning three pixels in an image; 0–100) versus Area (number of pixels in an image reported in square microns; 1–200) of channel one was plotted for each experiment with more than 85% of the data falling within the cells-in-focus gate. The fluorescence intensity values of FITC-positive cells (Intensity-MC, channel 2) were analyzed using the IDEAS version 6.2 program (Amnis, Seattle WA) and plotted as histograms with a bin number of 100. FITC-positive cells were selected based on histograms generated from the positive control sample.

Molecule: JaneliaFluor-CEDASSDSTGADPAQEAGTSKPNEE [JanFl-C-95, Cys(N)-C-95 conjugated to Janelia Fluor 549 maleimide, reference compound]
- cellular staining pattern (P. aeruginosa PA14 [1]): lacked staining

Molecule: NCCCCN [Putrescine]
- protection of PA14 against 5 μM N-104 killing (P. aeruginosa PA14 [2]): did not offer the same benefit
- toxicity to PA14 (P. aeruginosa PA14 [2]; 100-2000 µM polyamine): nor was toxic at high concentrations

Molecule: CC[C@H](C)[C@H](NC(C)=O)C(=O)N[C@@H](CC(N)=O)C(=O)N[C@H](C(=O)NCC(=O)NCC(=O)N[C@@H](C)C(=O)N[C@@H](CC(C)C)C(=O)N[C@@H](CCC(N)=O)C(=O)N1CCC[C@H]1C(N)=O)[C@@H](C)CC [FeoB OL1 peptide] (Ac-INIGGALQP-NH2)
- solvents in which solubility was identified [3]: formic or acetic acid
- solubility in common solvents [3]: not water, DMSO, methanol, isopropanol or acetonitrile soluble

Molecule: CC1(C)S[C@@H]2[C@H](NC(=O)[C@H](N)c3ccccc3)C(=O)N2[C@H]1C(=O)O [ampicillin]
- bacterial metabolic activity (Alamar Blue) (wild-type E. coli K-12): inhibitory

Molecule: CSCC[C@H](NC(=O)CNC(=O)[C@H](CCCCN)NC(=O)CNC(=O)[C@H](C)NC(=O)[C@H](CCCCN)NC(=O)[C@H](C)NC(C)=O)C(=O)N[C@@H](Cc1c[nH]cn1)C(=O)NCC(=O)NCC(=O)N[C@H](C(=O)N1CCC[C@H]1C(=O)NCC(=O)NCC(N)=O)C(C)C [N-80/C-25, reference compound] (Ac-AKAGKGMHGGVPGG-NH2)
- effect on exogenous Fe^2+ uptake (Fe^2+ uptake by PA14): partially inhibitory
- effect on ^14C-spermidine uptake [4]: also inhibitory
- membrane disruption (SYTOX Orange uptake) (P. aeruginosa PA14 [5]): not membrane disruptive

Molecule: NCCCCNCCCN [spermidine]
- protection of PA14 against 5 μM N-104 killing (P. aeruginosa PA14 [2]): increasingly protected
- concentration at which toxic to PA14 (P. aeruginosa PA14 [2]; 100-2000 µM polyamine): exceeding 100 μM

Molecule: JaneliaFluor-CAQKLLKKFSLLKPWA [JanFl-N-104, Cys(N)-N-104 conjugated to Janelia Fluor 549 maleimide]
- effect of tagging on N-104 activity in CFU assay (P. aeruginosa PA14 [6]): partially affected
- cellular staining pattern (P. aeruginosa PA14 [1]): peripheral internal ring

Molecule: CC(C)C[C@H](NC(=O)[C@H](CCCCN)NC(=O)[C@H](CCC(N)=O)NC(=O)[C@H](C)NC(=O)CCCCCNC(=S)Nc1ccc2c(c1)C(=O)OC21c2ccc(O)cc2Oc2cc(O)ccc21)C(=O)N[C@@H](CC(C)C)C(=O)N[C@@H](CCCCN)C(=O)N[C@@H](CCCCN)C(=O)N[C@@H](Cc1ccccc1)C(=O)N[C@@H](CO)C(=O)N[C@@H](CC(C)C)C(=O)N[C@@H](CC(C)C)C(=O)N[C@@H](CCCCN)C(=O)N1CCC[C@H]1C(=O)N[C@@H](Cc1c[nH]c2ccccc12)C(=O)N[C@@H](C)C(=O)O [FITC-N-104] ({FITC-Ahx}-AQKLLKKFSLLKPWA-OH)
- intracellular FITC fluorescence (P. aeruginosa PA14 [7]): substantial intracellular; also recorded: In contrast to FITC-C-95, substantial intracellular FITC-N-104 fluorescence was apparent at either 100 or 10 µM concentrations

Molecule: CC(=O)NCC(=O)N[C@@H](C)C(=O)N[C@@H](Cc1ccccc1)C(=O)N[C@@H](Cc1ccccc1)C(=O)NCC(=O)N[C@@H](CCC(N)=O)C(=O)NCC(=O)NCC(=O)N[C@@H](C)C(N)=O [FeoB OL3 peptide] (Ac-GAFFGQGGA-NH2)
- solvents in which solubility was identified [3]: ammonia water and acetic acid
- solubility in common solvents [3]: not water, DMSO, methanol, isopropanol or acetonitrile soluble
